Patent US7393812B2, “Methylidene mevalonates and their use as herbicides” (Dow AgroSciences LLC, priority 2004, dated 2008)

Legend:
Test in all cases: Post-emergent evaluation
Format in all cases: in vivo
Details in all cases: after 2 weeks
[1] = test system: velvetleaf (Abutilon theophrasti, ABUTH)
Description: (§1) Seeds of the desired test plant species were planted in Grace-Sierra MetroMix® 306 planting mixture, which typically has a pH of 6.0 to 6.8 and an organic matter content of about 30 percent, in plastic pots with a surface area of 64 square centimeters. When required to ensure good germination and healthy plants, a fungicide treatment and/or other chemical or physical treatment was applied. The plants were grown for 7-21 days in a greenhouse with an approximate 15 hr photoperiod which was maintained at about 23-29° C. during the day and 22-28° C. during the night. Nutrients and water were added on a regular basis and supplemental lighting was provided with overhead metal halide 1000-Watt lamps as necessary. The plants were employed for testing when they reached the first or second true leaf stage.
(§2) A weighed amount, determined by the highest rate to be tested, of each test compound was placed in a 20 mL glass vial and was dissolved in 4 mL of a 97:3 v/v (volume/volume) mixture of acetone and dimethyl sulfoxide (DMSO) to obtain concentrated stock solutions. […] The concentrated stock solutions obtained were diluted with an aqueous mixture containing acetone, water, isopropyl alcohol, DMSO, Atplus 411F crop oil concentrate, and Triton X-155 surfactant in a 48.5:39:10:1.5:1.0:0.02 v/v ratio to obtain spray solutions of known concentration. The solutions containing the highest concentration to be tested were prepared by diluting 2 mL aliquots of the stock solution with 13 mL of the mixture and lower concentrations were prepared by serial dilution of the stock solution. Approximately 1.5 mL aliquots of each solution of known concentration were sprayed evenly onto each of the test plant pots using a DeVilbiss atomizer driven by compressed air pressure of 2 to 4 psi ([…]) to obtain thorough coverage of each plant. Control plants were sprayed in the same manner with the aqueous mixture. In this test an application rate of 1 ppm results in the application of approximately 1 g/Ha.
(§3) The treated plants and control plants were placed in a greenhouse as described above and watered by sub-irrigation to prevent wash-off of the test compounds. […] Species abbreviations as described for Table I with the following additions: soybean (Glycine max, GLXMA), rape (Brassica napus, BRSNN), chickweed (Stellaria media, STEME), cocklebur (Xanthium strumarium XANST), lambsquarters (Chenopodium album, CHEAL), violet (Viola tricolor, VIOTR), bindweed (Polygonum convolvulus, POLCO), spurge (Euphorbia heterophylla, EPHHL), Canada thistle (Cirsium arvense, CIRAR), corn (Zea mays, ZEAMX), rice (Oryza sativa, ORYSA), wheat (Triticum aestivum, TRZAS), crabgrass (Digitaria sanguinalis, DIGSA), shattercane (Sorghum vulgare, SORVU) and yellow nutsedge (Cyperus esculentus, CYPES).
(§4) By applying the well-accepted probit analysis as described by J. Berkson in Journal of the American Statistical […], 48, 565 (1953) and by D. Finney in “Probit Analysis” Cambridge University Press (1952), similar data can be used to calculate GR80 values, which are defined as growth reduction factors that correspond to the effective dose of herbicide required to kill or control 80 percent of a target plant. Species abbreviations are as previously defined.

[2] = test system: morningglory (Ipomoea hederacea, IPOHE)
Description: as §1, §2, §3, §4

[3] = test system: shattercane (Sorghum vulgare, SORVU)
Description: as §1, §2, §3, §4

[4] = test system: barnyardgrass (Echinochloa crusgalli, ECHCG)
Description: as §1, §2, §3, §4

[5] = test system: violet (Viola tricolor, VIOTR)
Description: as §1, §2, §3, §4

[6] = test system: chickweed (Stellaria media, STEME)
Description: as §1, §2, §3, §4

[7] = test system: giant foxtail (Setaria faberi, SETFA)
Description: as §1, §2, §3, §4

[8] = test system: soybean (Glycine max, GLXMA)
Description: as §1, §2
(§5) The treated plants and control plants were placed in a greenhouse as described above and watered by sub-irrigation to prevent wash-off of the test compounds. After 2 weeks the condition of the test plants as compared with that of the untreated plants was determined visually and scored on a scale of 0 to 100 percent where 0 corresponds to no injury and 100 corresponds to complete kill. Species abbreviations as described for Table I with the following additions: soybean (Glycine max, GLXMA), rape (Brassica napus, BRSNN), chickweed (Stellaria media, STEME), cocklebur (Xanthium strumarium XANST), lambsquarters (Chenopodium album, CHEAL), violet (Viola tricolor, VIOTR), bindweed (Polygonum convolvulus, POLCO), spurge (Euphorbia heterophylla, EPHHL), Canada thistle (Cirsium arvense, CIRAR), corn (Zea mays, ZEAMX), rice (Oryza sativa, ORYSA), wheat (Triticum aestivum, TRZAS), crabgrass (Digitaria sanguinalis, DIGSA), shattercane (Sorghum vulgare, SORVU) and yellow nutsedge (Cyperus esculentus, CYPES).

[9] = test system: lambsquarters (Chenopodium album, CHEAL)
Description: as §1, §2, §5

[10] = test system: cocklebur (Xanthium strumarium XANST)
Description: as §1, §2, §5

[11] = test system: wheat (Triticum aestivum, TRZAS)
Description: as §1, §2, §5

Measured: Postemergent % Control

C=C(CO)C(C)(O)CC(=O)O (stereo not shown) [methylidene mevalonate, 3-hydroxy-4-(hydroxymethyl)-3-methylpent-4-enoic acid]
5%: [1]; spray concentration 250 ppm | [10]; spray concentration 250 ppm
95%: [4]; spray concentration 500 ppm | [4]; spray concentration 1000 ppm
20%: [1]; spray concentration 500 ppm | [6]; spray concentration 1000 ppm | [8]; spray concentration 125 ppm | [8]; spray concentration 250 ppm | [10]; spray concentration 1000 ppm | [10]; spray concentration 2000 ppm | [11]; spray concentration 250 ppm | [11]; spray concentration 500 ppm
100%: [4]; spray concentration 2000 ppm
80%: [2]; spray concentration 1000 ppm | [2]; spray concentration 2000 ppm | [7]; spray concentration 1000 ppm | [8]; spray concentration 1000 ppm | [8]; spray concentration 2000 ppm | [9]; spray concentration 2000 ppm | [11]; spray concentration 2000 ppm
0%: [1]; spray concentration 125 ppm | [3]; spray concentration 125 ppm | [5]; spray concentration 125 ppm | [5]; spray concentration 250 ppm | [5]; spray concentration 500 ppm | [6]; spray concentration 125 ppm | [6]; spray concentration 250 ppm | [6]; spray concentration 500 ppm | [9]; spray concentration 125 ppm | [9]; spray concentration 250 ppm | [10]; spray concentration 125 ppm | [11]; spray concentration 125 ppm
50%: [1]; spray concentration 1000 ppm | [2]; spray concentration 250 ppm | [3]; spray concentration 250 ppm | [8]; spray concentration 500 ppm | [9]; spray concentration 1000 ppm
25%: [5]; spray concentration 1000 ppm
85%: [4]; spray concentration 250 ppm
70%: [2]; spray concentration 500 ppm | [7]; spray concentration 250 ppm | [7]; spray concentration 500 ppm | [11]; spray concentration 1000 ppm
10%: [9]; spray concentration 500 ppm | [10]; spray concentration 500 ppm
90%: [3]; spray concentration 500 ppm | [3]; spray concentration 1000 ppm | [3]; spray concentration 2000 ppm | [7]; spray concentration 2000 ppm
40%: [2]; spray concentration 125 ppm | [4]; spray concentration 125 ppm | [6]; spray concentration 2000 ppm
60%: [1]; spray concentration 2000 ppm
30%: [5]; spray concentration 2000 ppm | [7]; spray concentration 125 ppm
